In patent publication US8703801B2, “Pyridinone hydroxycyclopentyl carboxamides: HIV integrase inhibitors with therapeutic applications” (University of Georgia Research Foundation, Inc., priority 2009, dated 2014):

Test system: HIV
Test: anti-HIV activity in cell culture
Type: cell-based
Settings: Human immunodeficiency virus 1, in vitro

Work on `O=C(N[C@H]1CCC[C@@H]1O)/C(O)=C/C(=O)c1cc(Cc2ccc(F)cc2F)cn(Cc2ccccc2F)c1=O` [FIG. 1a] yielded an EC50 of 25 nM.

Compound `O=C(NN1CCCC1=O)/C(O)=C/C(=O)c1cc(Cc2c(F)cccc2F)cn(Cc2ccccc2F)c1=O` [FIG. 1b] has an EC50 of 10 nM.
